{"source": "patent US20040009485A1", "about": "“Cellular arrays for the identification of altered gene expression” (priority 2002, published 2004)", "tested_on": "heat shock regulon gene fusions", "assay": "Stress response of heat shock regulon luxCDABE gene fusions (ethanol)", "type": "cell-based, E. coli", "settings": "clpB-luxCDABE fusion (heat shock regulon), DPD2243; 5 μg/ml nalidixic acid, 110 minutes", "protocol": "To test the stress responses, one or two single colonies of each selected strain were used to inoculate 5.0 ml of LB medium containing 150 μg/ml of ampicillin. These cultures were grown overnight at 37° C. then diluted by adding 50 μl or 100 μl of the overnight culture into 10.0 ml of fresh LB medium (without ampicillin) and grown with agitation at 37° C. until the culture was in exponential phase with readings on a Klett-Summerson colorimeter containing the red filter of between 10 and 40. These actively growing cultures were immediately used to initiate a stress response experiment by adding 50 μl of cultures to 50 μl of LB medium containing various concentrations of chemical in the wells a 96 well luminometer plate. This division of the actively growing culture at the time of chemical addition ensured identical populations were present when the stress was imposed. Light production was measured in a Dynex ML3000 luminometer at 37° C. The dimensionless units of light production, relative light units (RLU), are obtained by comparison with the light reading from an internal light-emitting diode. The cycle mode of the ML3000 luminometer, similar to previous descriptions (Van Dyk et al., Appl. Environ. Microbiol. 60:1414-120) was used. […]"}
{"molecule": "CCn1cc(C(=O)O)c(=O)c2ccc(C)nc21", "note": "[Nalidixic acid, nalidixic acid]", "values": [{"measurement": "Response Ratio", "result": 0.40}]}
